Assay results: ChEMBL document CHEMBL1131813, “9-Deoxopodophyllotoxin derivatives as anti-cancer agents” (1999)

Assays:
Settings in all cases: Homo sapiens
[1] = test system: A498; test: In vitro cytotoxic activity against renal (A 498) cancer cell line.; assay type: functional
[2] = test system: DU-145; test: In vitro cytotoxic activity against prostate (DU-145) cancer cell line.; assay type: functional
[3] = test system: M14; test: In vitro cytotoxic activity against melanoma (M 14) cancer cell line.; assay type: functional
[4] = test system: NCI/ADR-RES; test: In vitro cytotoxic activity against ADR resistant breast cancer (MCF-7-ADR) cell line.; assay type: functional
[5] = test system: SW-620; test: In vitro cytotoxic activity against colon (SW 620) cancer cell line.; assay type: functional
[6] = test system: SK-OV-3; test: In vitro cytotoxic activity against Ovarian (SK-OV3) cell line.; assay type: functional
[7] = test system: NCI-H522; test: In vitro cytotoxic activity against lung (H 522) cancer cell line.

## COc1cc([C@@H]2c3cc4c(cc3[C@@H](O)[C@H]3COC(CC(C)=O)[C@@H]23)OCO4)cc(OC)c1O (stereo not given in full)
[1]
  GI50: 0.08 µM
[2]
  GI50: 0.1 µM
[3]
  GI50: 0.8 µM
[4]
  GI50: 0.8 µM
[5]
  GI50: 0.1 µM
[6]
  GI50: 0.3 µM
[7]
  GI50: 0.8 µM

## COc1cc([C@@H]2c3cc4c(cc3[C@H](O)[C@H]3COC(OCCO)[C@H]23)OCO4)cc(OC)c1OC (stereo not given in full)
[1]
  GI50: 0.01 µM
[2]
  GI50: 20 µM
[3]
  GI50: 60 µM
[4]
  GI50: 70 µM
[5]
  GI50: 70 µM
[6]
  GI50: 0.09 µM
[7]
  GI50: 10 µM

## COC(=O)CC1OC[C@H]2[C@H]1[C@H](c1cc(OC)c(OC)c(OC)c1)c1cc3c(cc1[C@@H]2O)OCO3 (stereo not given in full)
[1]
  GI50: < 0.01 µM
[2]
  GI50: 60 µM
[3]
  GI50: > 100 µM
[4]
  GI50: 70 µM
[5]
  GI50: 70 µM
[6]
  GI50: 4 µM
[7]
  GI50: 8 µM

## COCCOC1OC[C@H]2[C@H]1[C@H](c1cc(OC)c(OC)c(OC)c1)c1cc3c(cc1[C@@H]2O)OCO3 (stereo not given in full)
[1]
  GI50: 0.05 µM
[2]
  GI50: 7 µM
[3]
  GI50: > 100 µM
[4]
  GI50: > 100 µM
[5]
  GI50: 80 µM
[6]
  GI50: 20 µM
[7]
  GI50: 0.09 µM

## COc1cc([C@@H]2c3cc4c(cc3[C@H](O)[C@H]3COC(=O)[C@H]23)OCO4)cc(OC)c1OC [PODOFILOX]
[1]
  GI50: 0.08 µM
[2]
  GI50: 0.04 µM
[3]
  GI50: 0.07 µM
[4]
  GI50: 0.6 µM
[5]
  GI50: 2 µM
[6]
  GI50: 0.9 µM
[7]
  GI50: 0.7 µM

## COc1cc([C@@H]2c3cc4c(cc3[C@H](O)[C@H]3COC(CC(C)=O)[C@H]23)OCO4)cc(OC)c1OC (stereo not given in full)
[1]
  GI50: 0.02 µM
[2]
  GI50: 20 µM
[3]
  GI50: 20 µM
[4]
  GI50: 60 µM
[5]
  GI50: 60 µM
[6]
  GI50: 6 µM
[7]
  GI50: 20 µM

## COc1cc([C@@H]2c3cc4c(cc3[C@@H](O[C@@H]3O[C@@H]5CO[C@@H](C)O[C@H]5[C@H](O)[C@H]3O)[C@H]3COC(=O)[C@H]23)OCO4)cc(OC)c1O [ETOPOSIDE]
[1]
  GI50: 8 µM
[2]
  GI50: 2 µM
[3]
  GI50: < 0.01 µM
[4]
  GI50: 25 µM
[5]
  GI50: 90 µM
[6]
  GI50: < 0.01 µM
[7]
  GI50: 0.9 µM

## COc1cc([C@@H]2c3cc4c(cc3[C@H](O)[C@H]3COC(OCCF)[C@H]23)OCO4)cc(OC)c1OC (stereo not given in full)
[1]
  GI50: 80 µM
[2]
  GI50: 80 µM
[3]
  GI50: 60 µM
[4]
  GI50: 50 µM
[5]
  GI50: 70 µM
[6]
  GI50: > 100 µM
[7]
  GI50: 80 µM

## COC(=O)CC1OC[C@H]2[C@H]1[C@H](c1cc(OC)c(O)c(OC)c1)c1cc3c(cc1[C@H]2O)OCO3 (stereo not given in full)
[1]
  GI50: > 100 µM
[2]
  GI50: > 100 µM
[3]
  GI50: > 100 µM
[4]
  GI50: 60 µM
[5]
  GI50: 20 µM
[6]
  GI50: 0.5 µM
[7]
  GI50: 9 µM

## COc1cc([C@@H]2c3cc4c(cc3[C@H](O)[C@H]3COC(CCO)[C@H]23)OCO4)cc(OC)c1OC (stereo not given in full)
[1]
  GI50: 0.05 µM
[2]
  GI50: 0.5 µM
[3]
  GI50: > 100 µM
[4]
  GI50: > 100 µM
[5]
  GI50: > 100 µM
[6]
  GI50: 0.8 µM
[7]
  GI50: 0.05 µM
